Experiment [1] addresses Tyrosine-protein kinase JAK2 (Homo sapiens, UniProt O60674). Kind of experiment: JAK2 Enzymatic Assay: The assay has been performed using the commercial available JAK2 kinase domain (Invitrogen, Eugene, Oreg.). […] The JAK2 kinase assay was run with a final enzyme concentration of 1 nM, in the presence of 60 uM ATP, 3 nM 33P-γ-ATP and 64 uM of substrate BioDBn*306 (Aminoacid sequence: LPLDKDYYWREPGQ⿿SEQ ID NO: 1). The peptidic substrate was purchased from American Peptide Company (Sunnyvale, Calif.). Specific JAK2, JAK1 or JAK3 peptide substrates are trans-phosphorylated by JAKs kinase in the presence of ATP traced with 33P-γ-ATP. At the end of the phosphorylation reaction, the unreacted ATP, cold and radioactive, is captured by an excess of Dowex ion exchange resin that eventually settles by gravity to the bottom of the reaction plate. The supernatant is subsequently withdrawn and transferred into a counting plate that is then evaluated by […].

The target of experiment [2] is T1, Tyrosine-protein kinase JAK3 (Homo sapiens, UniProt P52333).
T1 sequence (P52333 whole entry): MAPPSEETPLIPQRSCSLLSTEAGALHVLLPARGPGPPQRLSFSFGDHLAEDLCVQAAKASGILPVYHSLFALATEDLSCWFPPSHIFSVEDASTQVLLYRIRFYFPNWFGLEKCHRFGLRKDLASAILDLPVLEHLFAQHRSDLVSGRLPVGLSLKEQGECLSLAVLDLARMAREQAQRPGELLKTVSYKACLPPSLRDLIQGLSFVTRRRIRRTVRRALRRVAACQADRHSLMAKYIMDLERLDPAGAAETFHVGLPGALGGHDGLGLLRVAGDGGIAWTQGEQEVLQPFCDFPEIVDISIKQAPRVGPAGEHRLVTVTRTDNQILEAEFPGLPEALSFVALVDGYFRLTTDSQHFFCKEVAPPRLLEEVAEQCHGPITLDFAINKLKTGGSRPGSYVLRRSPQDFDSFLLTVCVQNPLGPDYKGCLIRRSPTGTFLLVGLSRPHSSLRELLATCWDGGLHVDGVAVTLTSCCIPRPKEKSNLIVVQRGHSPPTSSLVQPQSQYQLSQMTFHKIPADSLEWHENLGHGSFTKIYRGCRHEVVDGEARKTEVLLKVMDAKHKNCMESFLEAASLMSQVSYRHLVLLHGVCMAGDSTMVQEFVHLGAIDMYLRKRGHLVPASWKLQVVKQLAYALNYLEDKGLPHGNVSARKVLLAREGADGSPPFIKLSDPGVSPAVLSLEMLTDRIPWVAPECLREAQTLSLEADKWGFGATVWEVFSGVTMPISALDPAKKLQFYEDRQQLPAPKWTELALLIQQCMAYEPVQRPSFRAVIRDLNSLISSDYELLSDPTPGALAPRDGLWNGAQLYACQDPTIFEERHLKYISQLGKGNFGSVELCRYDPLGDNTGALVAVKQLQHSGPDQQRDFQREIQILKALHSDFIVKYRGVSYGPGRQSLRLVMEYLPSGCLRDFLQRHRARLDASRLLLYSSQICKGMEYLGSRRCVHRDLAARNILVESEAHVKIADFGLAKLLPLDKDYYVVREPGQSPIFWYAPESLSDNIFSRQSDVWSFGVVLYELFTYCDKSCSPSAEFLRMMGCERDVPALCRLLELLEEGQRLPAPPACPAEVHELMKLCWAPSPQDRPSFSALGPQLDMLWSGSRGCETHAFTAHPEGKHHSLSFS
Kind of experiment: JAK3 Enzymatic Assay: The assay has been performed using the JAK3 kinase domain (residues 781-1124 of the 1124 amino acid long full-length sequence, accession number P52333 of UniProtKB/Swiss-Prot databse). […] The JAK3 kinase assay was run with a final enzyme concentration of 1 nM, in the presence of 22 uM ATP, 1 nM 33P-γ-ATP and 40 uM of substrate BioDBn*306 (Amino acid sequence: LPLDKDYYWREPGQ-SEQ ID NO: 1). The peptidic substrate was purchased from American Peptide Company (Sunnyvale, Calif.).

Sequence of Tyrosine-protein kinase JAK2 (O60674 whole entry, the tested form may be a part): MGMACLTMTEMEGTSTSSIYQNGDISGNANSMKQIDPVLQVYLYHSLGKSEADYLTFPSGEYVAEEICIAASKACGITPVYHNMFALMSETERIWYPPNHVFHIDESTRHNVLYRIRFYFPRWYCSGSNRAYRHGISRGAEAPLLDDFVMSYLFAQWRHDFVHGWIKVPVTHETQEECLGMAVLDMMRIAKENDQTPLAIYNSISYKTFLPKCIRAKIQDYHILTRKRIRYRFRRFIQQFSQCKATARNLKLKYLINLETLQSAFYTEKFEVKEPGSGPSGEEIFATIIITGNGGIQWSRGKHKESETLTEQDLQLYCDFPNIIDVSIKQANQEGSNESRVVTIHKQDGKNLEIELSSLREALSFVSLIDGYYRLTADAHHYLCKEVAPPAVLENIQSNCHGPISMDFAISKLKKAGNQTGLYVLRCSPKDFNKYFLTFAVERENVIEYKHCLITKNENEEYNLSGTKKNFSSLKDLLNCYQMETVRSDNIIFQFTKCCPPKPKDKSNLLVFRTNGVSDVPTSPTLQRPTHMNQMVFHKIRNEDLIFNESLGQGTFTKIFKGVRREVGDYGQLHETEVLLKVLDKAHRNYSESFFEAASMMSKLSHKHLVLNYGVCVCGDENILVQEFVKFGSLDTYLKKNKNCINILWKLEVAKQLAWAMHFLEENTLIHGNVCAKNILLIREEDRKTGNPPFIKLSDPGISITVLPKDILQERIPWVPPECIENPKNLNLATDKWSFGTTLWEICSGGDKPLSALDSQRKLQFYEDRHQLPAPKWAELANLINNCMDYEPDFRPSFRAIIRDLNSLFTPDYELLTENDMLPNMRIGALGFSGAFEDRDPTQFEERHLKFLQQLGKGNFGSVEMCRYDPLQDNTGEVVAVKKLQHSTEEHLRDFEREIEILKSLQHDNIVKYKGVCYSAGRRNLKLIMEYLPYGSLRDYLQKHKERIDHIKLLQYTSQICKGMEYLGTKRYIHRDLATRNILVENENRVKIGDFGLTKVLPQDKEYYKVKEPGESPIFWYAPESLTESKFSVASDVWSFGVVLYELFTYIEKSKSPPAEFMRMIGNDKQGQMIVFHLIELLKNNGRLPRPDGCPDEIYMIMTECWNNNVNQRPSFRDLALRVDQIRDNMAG

In the case of `CCc1ccc(Cl)cc1-n1nc(-c2ccnc(N)n2)cc1C(N)=O`, the half-maximal inhibitory concentration (IC50) in experiment [1] and in experiment [2] was less than 5 µM throughout.

For orientation: IC50 means the concentration at which inhibition is half-maximal.

The values are drawn from ChEMBL document CHEMBL3886598, “Pyrazolyl-pyrimidine derivatives as kinase inhibitors” (2016).
